Measured values: paper PMC6268294, “Synthesis of Chalcones with Anticancer Activities” (Molecules, 2012)
Converted amounts (≈) assume the structure as drawn. Like-named read-outs stand apart in the source and are kept apart here.

Key:
[1] = tested on: human normal liver cell line WRL-68; experiment: MTT cell viability assay, WRL68; format: cell-based; details: 24 h treatment
Method: (§1) A549, PC3, MCF-7, HT-29, WRL68 and MCF-7 cells were obtained from the ATTC (Rockville, MD, USA) and grown in RPMI-1640 medium, 10% fetal bovine serum (FBS) and 1% pen-strep, in humidified conditions at 5% CO2 and 37 °C. The different cell lines mentioned above were used to determine the inhibitory effects of compounds on cell growth using the MTT assay. This colorimetric assay is based on the conversion of the yellow tetrazolium bromide (MTT) to a purple formazan derivative by mitochondrial succinate dehydrogenase in viable cells. Cells were seeded in 96-well plate and incubated for 24 h at 37 °C with 5% CO2 saturation. After incubation, the cells were treated with different concentration of compounds and incubated for another 24 h. After 24 h of drug treatment, 20 µL of MTT solution at 5 mg/mL was added and incubated for 4 h. Dimethyl sulfoxide (DMSO) in volume of 100 µL is added into each well to dissolve the purple formazan formed. The colorimetric assay is measured and recorded at absorbance of 570 nm.

[2] = tested on: MCF-7 (breast), A549 (lung), PC3 (prostate), HT-29 (colorectal) and WRL68 (liver); experiment: MTT assay, summary over all five cell lines; format: cell-based, human; details: for IC50: Homo sapiens
Method: as §1

[3] = tested on: human breast adenocarcinoma cell line MCF-7; experiment: MTT cell viability assay, MCF-7; format: cell-based; details: MCF7, 24 h treatment
Method: as §1

[4] = tested on: human adenocarcinoma cell line HT-29 (colorectal cancer); experiment: MTT cell viability assay, HT-29; format: cell-based; details: 24 h treatment
Method: as §1

[5] = tested on: human lung adenocarcinoma cell line A549; experiment: MTT cell viability assay, A549; format: cell-based; details: 24 h treatment
Method: as §1

[6] = tested on: human prostate cancer cell line PC3; experiment: MTT cell viability assay, PC3; format: cell-based; details: 24 h treatment
Method: as §1

MCF-7 cells = experiment: Multiparametric high content screening (HCS) cytotoxicity/apoptosis assay; format: cell-based, human
Method: The toxic effects of Cpd 1, 5, 23 and 25 at different doses on MCF-7 cells were assayed using the high content screening (HCS) KineticScan Reader (Cellomics Inc, Pittsburgh, PA, USA) with the Multiparameter Cytotoxicity Kit 3. The kit contains four fluorescent dyes, i.e., blue fluorescent Hoechst 33342, membrane permeability, mitochondrial membrane potential, and cytochrome c dyes. They respectively detect changes in nuclear morphology (nuclear condensation), membrane permeability, mitochondrial membrane potential and expression of cytochrome c. The multiparametric apoptosis kit quantifies three fundamental parameters related to the process of apoptosis, i.e., nuclear condensation detected by the blue fluorescent nuclear dye, Hoechst 33342, cell permeability detected by permeability dye, mitochondrial damage detected by mitochondrial membrane potential dye and cytochrome c release by DyLight 649 Conjugates. Following treatment with different concentrations of compounds 1, 23, 25 and 5 as mentioned before, the fixation and staining for imaging analysis of the MCF-7 cells were performed according to the manufacturer’s instructions. […] Plates were analyzed using a Thermo Scientific ArrayScanHVTI HCS Reader (Cellomics Inc, Pittsburgh, PA, USA). This is a computerized automated fluorescence imaging microscope that automatically identifies stained cells and measures the intensity and distribution of fluorescence in individual cells. Images for each fluoroprobe were acquired at different channels using suitable filters with 20x objective at fixed exposure time. The Cell Health Profiling BioApplication software was used for image acquisitions and analysis. For each well, at least 25 fields, corresponding to at least 500 cells were automatically acquired and analyzed. All experiments were performed in triplicates. Cell average intensity (Mean) under the modified object mask within selected range in each channel was used as assay indicator, and reported as average fluorescence intensity.

caspase-8 in MCF-7 cells = experiment: Caspase-Glo-8 activity; format: cell-based, human; details: MCF-7, 24 h, highest concentrations (6 µg/mL; 25: 4 µg/mL); control printed 50892 RLU; p < 0.05
Method: Due to the observation of significant cytotoxicity of selected compounds towards MCF-7 cells, the following analyses were done on them only. Cells were treated with compound 1 (1A- 3 µg/mL; 1B- 6 µg/mL), 23 (23A- 3 µg/mL; 23B- 6 µg/mL), 25 (25A- 2 µg/mL; 25B- 4 µg/mL) and 5 (5A- 3 µg/mL; 5B- 6 µg/mL).
Activity of cellular caspases was measured using the Caspase-Glo-9, Caspase-Glo-3/7 and Caspase-Glo-8 assay reagents (Promega), according to the manufacturer's instructions. The assays provide a luminogenic caspase-3/caspase-7 or caspase-8 or caspase-9 substrate, respectively, in a buffer system optimized for caspase activity measurement in cell lysates. The luciferase signal generated is proportional to the amount of caspase activity present. MCF-7 cells have no caspase-3 activity due to functional deletion of the CASP-3 gene. Therefore, the activity measured in this test is that of caspase-7. Briefly, cells were plated in opaque 96-well plates in triplicate and treated with […]. After 24 h treatment with compounds 1, 23, 25 and 5 as mentioned before, the assay reagents were added to the plates at room temperature and incubated for 60 min, and the luminescence was measured using a plate reader. All assays were done in triplicate, and means ± SD were calculated for each condition.

[7] = all five cell lines, MTT, read-out: IC50 in all cell lines
[8] = MCF-7, compounds 2-6 µg/mL, tamoxifen 0.04 µg/mL, vs control

| IC50 [3] | IC50 [4] | IC50 [5] | IC50 [6] | melting point | IC50 ([2]; all cell lines except for the A549 cell line, MTT, read-out: IC50 in all cell lines except A549) | IC50 [2, 7] | Structure (SMILES) | IC50 [1] | cytotoxic effect in words [2] | cytotoxic effect in words ([2]; all cell lines, MTT) | cell (membrane) permeability (MCF-7 cells; [8]) | cytochrome c release (MCF-7 cells; [8]) | mitochondrial membrane potential (MCF-7 cells; [8]) | total nuclear intensity (Hoechst 33342 nuclear chromatin staining) (MCF-7 cells; [8]) | cell loss (MCF-7 cells; MCF-7, compounds 2-6 µg/mL, data not shown) | apoptosis in MCF-7 cells (MCF-7 cells; shown by multiparameter cytotoxicity assay and caspase-3/7, -8, -9 activities, p < 0.05) | caspase-8 activity at highest concentration (caspase-8 in MCF-7 cells) |
| --- | --- | --- | --- | --- | --- | --- | --- | --- | --- | --- | --- | --- | --- | --- | --- | --- | --- |
| > 100 µg/mL | > 100 µg/mL | > 100 µg/mL | > 100 µg/mL | – | – | – | COc1ccc(/C=C/C(=O)c2ccc(O)cc2)cc1 [Compound 14, 1-(4-Hydroxyphenyl)-3-(4-methoxyphenyl)-propenone] | > 100 µg/mL | low cytotoxic effects | – | – | – | – | – | – | – | – |
| 32.4 ± 1.88 µg/mL (≈ 128 µM) | 29.6 ± 2.8 µg/mL (≈ 117 µM) | > 100 µg/mL | 43.3 ± 4.01 µg/mL (≈ 171 µM) | – | – | – | COc1ccc(/C=C/C(=O)c2ccc(C)cc2)cc1 [Compound 15, 3-(4-Methoxyphenyl)-1-p-tolylpropenone] | 50.9 ± 3.51 µg/mL (≈ 202 µM) | – | – | – | – | – | – | – | – | – |
| 41.4 ± 1.91 µg/mL (≈ 154 µM) | 67.1 ± 4.1 µg/mL (≈ 250 µM) | > 100 µg/mL | > 100 µg/mL | – | – | – | COc1ccc(/C=C/C(=O)c2ccc(OC)cc2)cc1 [Compound 16, 1,3-Bis-(4-Methoxyphenyl)-propenone] | 60.8 ± 4.22 µg/mL (≈ 227 µM) | – | – | – | – | – | – | – | – | – |
| 99.3 ± 6.16 µg/mL (≈ 395 µM) | 64.3 ± 5.02 µg/mL (≈ 256 µM) | > 100 µg/mL | > 100 µg/mL | – | – | – | CN(C)c1ccc(/C=C/C(=O)c2ccccc2)cc1 [Compound 17, 3-(4-Dimethylaminophenyl)-1-phenyl-propenone] | > 100 µg/mL | – | – | – | – | – | – | – | – | – |
| 57.3 ± 3.1 µg/mL (≈ 216 µM) | 69.5 ± 4.23 µg/mL (≈ 262 µM) | 58.5 ± 3.2 µg/mL (≈ 221 µM) | > 100 µg/mL | 124 to 125 °C | – | – | Cc1ccc(C(=O)/C=C/c2ccc(N(C)C)cc2)cc1 [Compound 19, 3-(4-Dimethylaminophenyl)-1-p-tolyl-propenone] | 39.8 ± 3.9 µg/mL (≈ 150 µM) | – | – | – | – | – | – | – | – | – |
| > 100 µg/mL | > 100 µg/mL | 78.8 ± 4.4 µg/mL (≈ 280 µM) | > 100 µg/mL | – | – | – | COc1ccc(C(=O)/C=C/c2ccc(N(C)C)cc2)cc1 [Compound 20, 3-(4-Dimethylaminophenyl)-1-(4-methoxy-phenyl)-propenone] | > 100 µg/mL | low cytotoxic effects | – | – | – | – | – | – | – | – |
| 9.35 ± 1.2 µg/mL (≈ 41.7 µM) | 19.8 ± 2.01 µg/mL (≈ 88.5 µM) | 22.6 ± 1.1 µg/mL (≈ 101 µM) | 11.1 ± 0.4 µg/mL (≈ 49.4 µM) | – | < 20 µg/mL | – | O=C(/C=C/c1ccccc1O)c1ccccc1 [Compound 21, 3-(2-Hydroxyphenyl)-1-phenylpropenone] | 17 ± 1.7 µg/mL (≈ 75.9 µM) | – | – | – | – | – | – | – | – | – |
| > 100 µg/mL | > 100 µg/mL | > 100 µg/mL | > 100 µg/mL | 287 to 289 °C | – | – | O=C(/C=C/c1ccccc1O)c1ccc(O)cc1 [Compound 22, 3-(2-Hydroxyphenyl)-1-(4-hydroxyphenyl)-propenone] | > 100 µg/mL | low cytotoxic effects | – | – | – | – | – | – | – | – |
| 7.15 ± 0.4 µg/mL (≈ 28.1 µM) | 11.4 ± 1 µg/mL (≈ 44.9 µM) | 14.2 ± 1 µg/mL (≈ 55.7 µM) | 5.58 ± 0.2 µg/mL (≈ 22 µM) | – | – | < 20 µg/mL | COc1ccc(C(=O)/C=C/c2ccccc2O)cc1 [Compound 24, 3-(2-Hydroxyphenyl)-1-(4-methoxyphenyl)-propenone] | 8.72 ± 1 µg/mL (≈ 34.3 µM) | high cytotoxicity | – | – | – | – | – | – | – | – |
| 5.25 ± 0.67 µg/mL (≈ 21.6 µM) | 7.77 ± 1.1 µg/mL (≈ 32 µM) | 14.5 ± 0.2 µg/mL (≈ 59.7 µM) | 6.94 ± 0.61 µg/mL (≈ 28.6 µM) | – | – | < 20 µg/mL | O=C(/C=C/c1cccc(Cl)c1)c1ccccc1 [Compound 25, 3-(3-Chlorophenyl)-1-phenylpropenone] | 7.72 ± 1.6 µg/mL (≈ 31.8 µM) | high cytotoxicity | – | increased cell permeability | cytochrome c release from mitochondria | loss of mitochondrial membrane potential | increased total nuclear intensity | statistically significant cell loss | capable in eliciting apoptosis | 18,356 RLU |
| – | – | – | – | – | – | – | CC/C(=C(\c1ccccc1)c1ccc(OCCN(C)C)cc1)c1ccccc1 [tamoxifen, reference compound] | – | – | – | – | found to increase | reduction in mitochondrial membrane potential dye retention | increase in nuclear chromatin staining | – | – | – |

| Structure (SMILES) | IC50 [3] | IC50 [4] | IC50 [5] | IC50 [6] | melting point | IC50 ([2]; all cell lines except for the A549 cell line, MTT, read-out: IC50 in all cell lines except A549) | IC50 [2, 7] | IC50 [1] | cytotoxic effect in words [2] | cytotoxic effect in words ([2]; all cell lines, MTT) | cell (membrane) permeability (MCF-7 cells; [8]) | cytochrome c release (MCF-7 cells; [8]) | mitochondrial membrane potential (MCF-7 cells; [8]) | total nuclear intensity (Hoechst 33342 nuclear chromatin staining) (MCF-7 cells; [8]) | cell loss (MCF-7 cells; MCF-7, compounds 2-6 µg/mL, data not shown) | apoptosis in MCF-7 cells (MCF-7 cells; shown by multiparameter cytotoxicity assay and caspase-3/7, -8, -9 activities, p < 0.05) | caspase-8 activity at highest concentration (caspase-8 in MCF-7 cells) |
| --- | --- | --- | --- | --- | --- | --- | --- | --- | --- | --- | --- | --- | --- | --- | --- | --- | --- |
| CN(C)c1ccc(/C=C/C(=O)c2ccc(O)cc2)cc1 [Compound 18, 3-(4-Dimethylaminophenyl)-1-(4-hydroxy-phenyl)-propenone] | > 100 µg/mL | > 100 µg/mL | > 100 µg/mL | > 100 µg/mL | – | – | – | > 100 µg/mL | – | low cytotoxic effects | – | – | – | – | – | – | – |
